Experimental data as given in patent US20230114728A1 (Venatorx Pharmaceuticals, Inc., priority 2019, published 2023).
Values after ≈ are worked out from the molar mass of the structure shown. Where two headings read alike, the source gives them in different places.

Key:
P. aeruginosa PBP3 = biological target: T1, P. aeruginosa PBP3 (Pseudomonas aeruginosa, UniProt G3XD46); assay: Bocillin-FL fluorescence polarization competition binding assay, P. aeruginosa PBP3; conditions: fluorescence polarization competition binding assay using Bocillin-FL
T1 construct: made in house
Procedure, shortened: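 Binding of boronic acid inhibitors to purified Pseudomonas aeruginosa (PA01) PBP3 was measured by fluorescence polarization competition with Bocillin-FL, a fluorescent penicillin V. Reactions of 80 μl contained 0.75 μM PBP3 and 0.1 μM Bocillin-FL in 50 mM Hepes (pH 8.0), 300 mM NaCl and 5% (v/v) glycerol, in black 384-well plates. FP (Excitation 490 nm, Emission 520 nm) was read for up to 60 minutes. EC50 is the concentration that halves PBP-bound Bocillin-FL.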

[1] = system: N. gonorrhoeae ATCC 49226; assay: Liquid broth MIC in Fastidious broth; format: cell-based; conditions: Neisseria gonorrhoeae, ATCC49226; N. gonorrhoeae strain ATCC 49226; Fastidious broth; read-out: Minimum Inhibitory Concentration, N. gonorrhoeae ATCC 49226
Experimental: (§1) Example V: In Vitro Antibacterial Assays for N. gonorrhoeae Strains
(§2) Additional antibacterial testing of the series was performed in 8 reference strains of N. gonorrhoeae (ATCC 49226, FA1090, WHO G, WHO L, WHO K, H041, WHO Z, and WHO Q). ATCC 49226, FA1090, WHO G, and WHO L produce wild type or wild-type like PBP2. WHO K, H041, WHO Z, and WHO Q produce mosaic PBP2. Liquid broth-based assays were used for antibacterial testing of PBP inhibitors in Neisseria gonorrhoeae. Briefly, cryo-preserved bacterial cultures of clinical strains were streaked for isolation on Chocolate Agar (72 g/L (2×) GC Agar Base (BD #228950) and 2% (2×) Hemoglobin was autoclaved at 121° C. for 20 minutes to sterilize. Once cooled to ˜50° C. the 2× GC Agar Base and 2× Hemoglobin solutions are combined and 1% IsoVitaleX Enrichment (BD #211876) was added to the solution). Strains were incubated at 36° C. and 5% CO2 to allow growth of colonies, 24 hours before inoculum preparation. 2-fold serial dilutions of test compounds were conducted in a 96 well plate with a final volume of 75 μL per well at 2-fold the final desired concentration in Fastidious broth (Remel #R07664). For preparation of assay inoculum, a direct suspension was prepared by aseptically swabbing all colonies from agar plates into culture tubes containing 2 mL of fresh sterile saline. After the dilution plates were set up, direct suspensions were then diluted in a cuvette containing sterile saline and the optical density was measured at 600 nm. Inocula were diluted such that 75 μL of this culture in Fastidious broth results in a starting bacterial concentration of 5×10^5 CFU/mL when added to the dilution plates. The plates were incubated for ˜24 hours at 36° C. and 5% CO2. The MIC was read visually as the lowest concentration well with <10% bacterial growth compared to wells of full growth.

N. gonorrhoeae FA1090 = assay: Liquid broth MIC in Fastidious broth; format: cell-based; conditions: Neisseria gonorrhoeae; N. gonorrhoeae strain FA1090; Fastidious broth; read-out: Minimum Inhibitory Concentration, N. gonorrhoeae FA1090
Experimental: as §1, §2

N. gonorrhoeae H041 = assay: Liquid broth MIC in Fastidious broth; format: cell-based; conditions: Neisseria gonorrhoeae, H041, read-out: Minimum Inhibitory Concentration, N. gonorrhoeae H041
Experimental: as §1, §2

N. gonorrhoeae WHO G = assay: Liquid broth MIC in Fastidious broth; format: cell-based; conditions: Neisseria gonorrhoeae, read-out: Minimum Inhibitory Concentration, N. gonorrhoeae WHO G
Experimental: as §1, §2

N. gonorrhoeae WHO K = assay: Liquid broth MIC in Fastidious broth; format: cell-based; conditions: Neisseria gonorrhoeae, read-out: Minimum Inhibitory Concentration, N. gonorrhoeae WHO K
Experimental: as §1, §2

N. gonorrhoeae WHO L = assay: Liquid broth MIC in Fastidious broth; format: cell-based; conditions: Neisseria gonorrhoeae, read-out: Minimum Inhibitory Concentration, N. gonorrhoeae WHO L
Experimental: as §1, §2

[2] = N. gonorrhoeae strain WHO G, Fastidious broth
[3] = N. gonorrhoeae strain WHO L, Fastidious broth

T1 sequence (G3XD46 whole entry): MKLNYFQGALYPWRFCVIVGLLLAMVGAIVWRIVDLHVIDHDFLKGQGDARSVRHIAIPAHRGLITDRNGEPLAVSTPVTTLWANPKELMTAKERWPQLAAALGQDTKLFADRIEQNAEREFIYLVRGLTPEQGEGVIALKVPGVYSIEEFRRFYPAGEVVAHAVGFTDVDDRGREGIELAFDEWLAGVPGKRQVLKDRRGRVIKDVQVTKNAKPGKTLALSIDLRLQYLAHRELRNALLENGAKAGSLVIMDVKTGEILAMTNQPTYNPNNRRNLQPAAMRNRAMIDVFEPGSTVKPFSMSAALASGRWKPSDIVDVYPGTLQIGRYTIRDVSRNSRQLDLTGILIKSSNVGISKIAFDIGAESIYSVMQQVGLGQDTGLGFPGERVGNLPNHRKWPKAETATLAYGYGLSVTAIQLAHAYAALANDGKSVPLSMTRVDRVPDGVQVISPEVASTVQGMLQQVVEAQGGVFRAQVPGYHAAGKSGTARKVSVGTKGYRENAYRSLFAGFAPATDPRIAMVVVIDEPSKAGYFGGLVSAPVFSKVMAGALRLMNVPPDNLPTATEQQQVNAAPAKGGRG

| SMILES | P. aeruginosa PBP3 Potency (P. aeruginosa PBP3) | MIC [1] [µg/mL] | MIC (N. gonorrhoeae FA1090) [µg/mL] | MIC (N. gonorrhoeae H041) [µg/mL] | MIC (N. gonorrhoeae WHO G; [2]) [µg/mL] | MIC (N. gonorrhoeae WHO K) [µg/mL] | MIC (N. gonorrhoeae WHO L; [3]) [µg/mL] | MIC (N. gonorrhoeae WHO G) [µg/mL] | MIC (N. gonorrhoeae WHO L) [µg/mL] |
| --- | --- | --- | --- | --- | --- | --- | --- | --- | --- |
| CCN1CCN(C(=O)NC(C(=O)N[C@H]2Cc3cccc(C(=O)O)c3OB2O)c2cc(O)cc(O)c2)C(=O)C1=O (mixture of isomers) [Example 79, (3R)-3-(2-(3,5-dihydroxyphenyl)-2-(4-ethyl-2,3-dioxopiperazine-1-carboxamido)acetamido)-2-hydroxy-3,4-dihydro-2H-benzo[e][1,2]oxaborinine-8-carboxylic acid] | D (D represents a potency <10 μM) | 1 to 2 | < 0.125 | 16 to 32 | 1 to 2 | 16 to 32 | 16 to 32 | – | – |
| NCCN1CCN(C(=O)N[C@@H](C(=O)N[C@H]2Cc3ccc(F)c(C(=O)O)c3OB2O)c2c(F)cc(O)c(O)c2Cl)C(=O)C1=O (single isomer, unassigned) [Example 26] | D (D represents a potency <10 μM) | > 64 | 16 to 32 (≈ 25.6 to 51.1 µM) | > 64 | > 64 | > 64 | > 64 | – | – |
| NCCCN1CCN(C(=O)N[C@@H](C(=O)N[C@H]2Cc3ccc(F)c(C(=O)O)c3OB2O)c2c(F)cc(O)c(O)c2Cl)C(=O)C1=O (single isomer, unassigned) [Example 27] | D (D represents a potency <10 μM) | > 64 | 16 to 32 (≈ 25 to 50 µM) | > 64 | 16 to 32 (≈ 25 to 50 µM) | > 64 | > 64 | – | – |
| NCCCN1CCN(C(=O)N[C@H](C(=O)N[C@H]2Cc3ccc(F)c(C(=O)O)c3OB2O)c2ccc(O)c(O)c2Cl)C(=O)C1=O (single isomer, unassigned) [Example 28] | B (B represents a potency between 30 μM and 500 μM inclusive) | > 64 | > 64 | > 64 | > 64 | > 64 | > 64 | – | – |
| O=C(O)c1c(F)ccc2c1OB(O)[C@@H](NC(=O)[C@H](NC(=O)N1CCNC1=O)c1c(F)cc(O)c(O)c1Cl)C2 (single isomer, unassigned) [Example 34] | D (D represents a potency <10 μM) | 16 to 32 (≈ 28.8 to 57.7 µM) | 4 to 8 (≈ 7.21 to 14.4 µM) | > 64 | 16 to 32 (≈ 28.8 to 57.7 µM) | > 64 | > 64 | – | – |
| CS(=O)(=O)N1CCN(C(=O)N[C@@H](C(=O)N[C@H]2Cc3ccc(F)c(C(=O)O)c3OB2O)c2c(F)cc(O)c(O)c2Cl)C1=O (single isomer, unassigned) [Example 35] | D (D represents a potency <10 μM) | 16 to 32 (≈ 25.3 to 50.6 µM) | 4 to 8 (≈ 6.32 to 12.6 µM) | > 64 | 16 to 32 (≈ 25.3 to 50.6 µM) | > 64 | > 64 | – | – |
| NCCN1CCN(C(=O)N[C@@H](C(=O)N[C@H]2Cc3ccc(F)c(C(=O)O)c3OB2O)c2c(F)cc(O)c(O)c2F)C(=O)C1=O (single isomer, unassigned) [Example 40] | D (D represents a potency <10 μM) | 16 to 32 (≈ 26.3 to 52.5 µM) | 4 to 8 (≈ 6.57 to 13.1 µM) | > 64 | 16 to 32 (≈ 26.3 to 52.5 µM) | > 64 | > 64 | – | – |
| NCCCN1CCN(C(=O)N[C@@H](C(=O)N[C@H]2Cc3ccc(F)c(C(=O)O)c3OB2O)c2c(F)cc(O)c(O)c2F)C(=O)C1=O (single isomer, unassigned) [Example 41] | D (D represents a potency <10 μM) | 16 to 32 (≈ 25.7 to 51.3 µM) | 4 to 8 (≈ 6.42 to 12.8 µM) | > 64 | 16 to 32 (≈ 25.7 to 51.3 µM) | > 64 | > 64 | – | – |
| CCN1CCN(C(=O)N[C@H](C(=O)N[C@H]2Cc3cccc(C(=O)O)c3OB2O)c2cc(O)cc(O)c2)C(=O)C1=O (single isomer, unassigned) [Example 81] | B (B represents a potency between 30 μM and 500 μM inclusive) | 4 to 8 (≈ 7.4 to 14.8 µM) | 0.25 to 0.5 (≈ 0.463 to 0.925 µM) | 16 to 32 (≈ 29.6 to 59.2 µM) | 0.25 to 0.5 (≈ 0.463 to 0.925 µM) | 16 to 32 (≈ 29.6 to 59.2 µM) | 16 to 32 (≈ 29.6 to 59.2 µM) | – | – |
| CCN1CCN(C(=O)N[C@@H](C(=O)N[C@H]2Cc3cccc(C(=O)O)c3OB2O)c2cc(O)cc(O)c2)C(=O)C1=O (single isomer, unassigned) [Example 82] | D (D represents a potency <10 μM) | 4 to 8 (≈ 7.4 to 14.8 µM) | < 0.125 | 4 to 8 (≈ 7.4 to 14.8 µM) | 0.25 to 0.5 (≈ 0.463 to 0.925 µM) | 4 to 8 (≈ 7.4 to 14.8 µM) | 16 to 32 (≈ 29.6 to 59.2 µM) | – | – |
| NCCN1CCN(C(=O)N[C@H](C(=O)N[C@H]2Cc3cccc(C(=O)O)c3OB2O)c2ccc(C(=O)O)cc2)C(=O)C1=O (single isomer, unassigned) [Example 83] | C (C represents a potency between 10 and 30 μM) | 16 to 32 (≈ 28.2 to 56.4 µM) | 1 to 2 (≈ 1.76 to 3.53 µM) | > 64 | 4 to 8 (≈ 7.05 to 14.1 µM) | > 64 | > 64 | – | – |
| NCCN1CCN(C(=O)N[C@@H](C(=O)N[C@H]2Cc3cccc(C(=O)O)c3OB2O)c2ccc(C(=O)O)cc2)C(=O)C1=O (single isomer, unassigned) [Example 84] | D (D represents a potency <10 μM) | 4 to 8 (≈ 7.05 to 14.1 µM) | 1 to 2 (≈ 1.76 to 3.53 µM) | > 64 | 1 to 2 (≈ 1.76 to 3.53 µM) | 16 to 32 (≈ 28.2 to 56.4 µM) | 16 to 32 (≈ 28.2 to 56.4 µM) | – | – |
| O=C(O)c1ccc(C(NC(=O)N2CCN(CCNC(=O)c3ccc(O)c(O)c3Cl)C(=O)C2=O)C(=O)N[C@H]2Cc3ccc(F)c(C(=O)O)c3OB2O)cc1F (stereo partly drawn) [Example 11, (3R)-3-(2-(4-carboxy-3-fluorophenyl)-2-(4-(2-(2-chloro-3,4-dihydroxybenzamido)ethyl)-2,3-dioxopiperazine-1-carboxamido)acetamido)-7-fluoro-2-hydroxy-3,4-dihydro-2H-benzo[e][1,2]oxaborinine-8-carboxylic acid] | – | 16 to 32 (≈ 20.7 to 41.4 µM) | 1 to 2 (≈ 1.29 to 2.58 µM) | > 64 | 4 to 8 (≈ 5.17 to 10.3 µM) | > 64 | > 64 | – | – |
| O=C(O)c1c(F)ccc2c1OB(O)[C@@H](NC(=O)C(NC(=O)N1CCN(CCBr)C(=O)C1=O)c1c(F)cc(O)c(O)c1F)C2 (stereo partly drawn) [Example 38, (3R)-3-(2-(4-(2-bromoethyl)-2,3-dioxopiperazine-1-carboxamido)-2-(2,6-difluoro-3,4-dihydroxyphenyl)acetamido)-7-fluoro-2-hydroxy-3,4-dihydro-2H-benzo[e][1,2]oxaborinine-8-carboxylic acid] | – | 16 to 32 (≈ 23.8 to 47.5 µM) | 4 to 8 (≈ 5.94 to 11.9 µM) | > 64 | – | > 64 | – | 16 to 32 (≈ 23.8 to 47.5 µM) | > 64 |
| CCN1CCN(C(=O)NC(C(=O)N[C@H]2Cc3ccc(O[C@@H]4CN[C@H](C(=O)N(C)C)C4)c(C(=O)O)c3OB2O)c2ccccc2)C(=O)C1=O (stereo partly drawn) [Example 59, (3R)-7-(((3S,5S)-5-(dimethylcarbamoyl)pyrrolidin-3-yl)oxy)-3-(2-(4-ethyl-2,3-dioxopiperazine-1-carboxamido)-2-phenylacetamido)-2-hydroxy-3,4-dihydro-2H-benzo[e][1,2]oxaborinine-8-carboxylic acid] | – | > 64 | 4 to 8 (≈ 6.02 to 12 µM) | > 64 | > 64 | > 64 | > 64 | – | – |
| NCCN1CCN(C(=O)NC(C(=O)N[C@H]2Cc3cccc(C(=O)O)c3OB2O)c2c(F)cc(O)cc2Cl)C(=O)C1=O (stereo partly drawn) [Example 94, (3R)-3-(2-(4-(2-aminoethyl)-2,3-dioxopiperazine-1-carboxamido)-2-(2-chloro-6-fluoro-4-hydroxyphenyl)acetamido)-2-hydroxy-3,4-dihydro-2H-benzo[e][1,2]oxaborinine-8-carboxylic acid] | – | > 64 | 4 to 8 (≈ 6.76 to 13.5 µM) | > 64 | 16 to 32 (≈ 27 to 54.1 µM) | > 64 | > 64 | – | – |
